Test results reported in paper PMC9953353 (2023).

Assays:
[1] = system: Thi-5R-18 (DNA, aptamer) ATAGGAGTCACGACGACCAGAAGGGCAAATAGCATAATGGATCACATTAGATGAGCCCAGGCTATGTGCGTCTACCTCTTGACTAAT; test: AuNP colorimetric aptasensor; conditions: NaCl 0.25 M added for aggregation; 10^−7 M tested; response below one tenth of thiamethoxam at 10^−8 M
[2] = system: truncated Thi-5R-18 (DNA, aptamer) GAAGGGCAAATAGCATAATGGATCACATTAGATGAGCCCAGGCTATGTGCG; test: isothermal titration calorimetry; conditions: 5 mM KCl, 100 mM NaCl, 1 mM MgCl2; 50 mM Tris-HCl, pH 7.4, 25 °C; Kd could not be fitted; thiamethoxam 1 mM
[3] = system: Thi-5R-18 (DNA, aptamer) ATAGGAGTCACGACGACCAGAAGGGCAAATAGCATAATGGATCACATTAGATGAGCCCAGGCTATGTGCGTCTACCTCTTGACTAAT; test: isothermal titration calorimetry; conditions: 5 mM KCl, 100 mM NaCl, 1 mM MgCl2; 50 mM Tris-HCl, pH 7.4, 25 °C; 25 μM aptamer, 1 mM thiamethoxam

Row | Structure (SMILES) | binding [1] | binding [2] | Kd [3]
1 | CN/C(=N\[N+](=O)[O-])NCc1cnc(Cl)s1 | weak |  | 
2 | CN1COCN(Cc2cnc(Cl)s2)C1=N[N+](=O)[O-] |  | no | 49.35 µM
3 | CNC(=N[N+](=O)[O-])NCC1CCOC1 (stereo not drawn) | weak |  | 
4 | O=C(O)CNCP(=O)(O)O | weak |  | 
5 | O=[N+]([O-])N=C1NCCN1Cc1ccc(Cl)nc1 | weak |  | 
